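1) Cells in 96-well plates. 2) Compound, 48 h, 5 concentrations. 3) Linear interpolation between surrounding doses. 4) Unreached endpoint = highest concentration. GI50 marks 50% less growth. The concentration for full growth arrest is given as TGI.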

Test systems include A549 NSCLC; HCC-2998 colon; HT29 colon; K-562 leukemia; M14 melanoma; NCI-H226 lung; OVCAR-3 ovarian; OVCAR-5 ovarian; SNB-75 CNS; TK-10 renal.
Common to all, as to test: growth of human tumour cells (NCI), 48 h

`O=c1ccn([C@H]2CSC[C@@H](CO)C2)c(=O)[nH]1`: the TGI in the assay with A549 NSCLC, in the assay with HCC-2998 colon, in the assay on HT29 colon, with K-562 leukemia, with M14 melanoma and in the assay with NCI-H226 lung was above 100 µM each time. The TGI in the assay on OVCAR-3 ovarian, in the assay with OVCAR-5 ovarian, in the assay on SNB-75 CNS and with TK-10 renal was above 100 µM each time.

Take `COc1c(OC[C@H](O)CN2CCOCC2)ccc2c3n(c(=NC(=O)c4cccnc4C)nc12)CCN3`: the GI50 with A549 NSCLC is 0.826 µM; with HCC-2998 colon, 1.9 µM; in the assay with HT29 colon, 0.217 µM; in the assay with K-562 leukemia, above 50 µM; in the assay with M14 melanoma, 27.8 µM; in the assay with NCI-H226 lung, 15.4 µM. Also, the GI50 in the assay with OVCAR-3 ovarian was 0.432 µM; in the assay on OVCAR-5 ovarian, 0.171 µM; with SNB-75 CNS, 0.02 µM; in the assay with TK-10 renal, 0.0941 µM. Besides, the TGI in the assay with A549 NSCLC, with HCC-2998 colon, in the assay with HT29 colon, with K-562 leukemia, with M14 melanoma and in the assay on NCI-H226 lung was above 50 µM in each case. For the same molecule, the TGI is above 50 µM with OVCAR-3 ovarian, above 50 µM with OVCAR-5 ovarian, 1.18 µM with SNB-75 CNS and above 50 µM in the assay with TK-10 renal.

Take `COc1ccc(-c2nn(-c3ccc(NC(=O)c4ccc(Cl)c(Cl)c4)cc3)cc2-c2ccncc2)cc1Cl`: the GI50 was above 12.4 µM in the assay on A549 NSCLC; 1.85 µM in the assay on HCC-2998 colon; 1.21 µM with HT29 colon; 1.76 µM in the assay on K-562 leukemia; 1.67 µM with M14 melanoma; above 28.2 µM in the assay on NCI-H226 lung. The GI50 with OVCAR-3 ovarian is above 20.3 µM; in the assay with OVCAR-5 ovarian, 3.24 µM; in the assay with SNB-75 CNS, 1.26 µM; in the assay with TK-10 renal it was above 11.1 µM. The TGI was above 50 µM with A549 NSCLC; above 50 µM with HCC-2998 colon; 3.22 µM in the assay with HT29 colon; above 30.6 µM in the assay with K-562 leukemia; above 12.9 µM with M14 melanoma; above 50 µM in the assay on NCI-H226 lung. Further, the TGI with OVCAR-3 ovarian, in the assay on OVCAR-5 ovarian, with SNB-75 CNS and with TK-10 renal was above 50 µM throughout.

With `C[C@@H]1CC[C@@H]2[C@@H]1[C@H](OC(=O)/C=C/c1ccccc1)[C@]1(C3CCCCC3)C[C@@H](OC(=O)CO)[C@@]2(C)O1`, the GI50 with A549 NSCLC was 4.03 µM; with HCC-2998 colon it was 1.94 µM; with HT29 colon it was 2.89 µM; in the assay on K-562 leukemia it was 3.88 µM; in the assay with M14 melanoma it was 3.57 µM; in the assay with NCI-H226 lung, 2.06 µM. For the same molecule, the GI50 in the assay on OVCAR-3 ovarian was 2.53 µM; in the assay on OVCAR-5 ovarian it was 1.93 µM; in the assay on SNB-75 CNS, 1.09 µM; in the assay on TK-10 renal it was 9.17 µM. In addition, the TGI amounted to 14.1 µM in the assay on A549 NSCLC; 3.92 µM with HCC-2998 colon; 8.05 µM with HT29 colon; 14.6 µM in the assay on K-562 leukemia; 15.2 µM in the assay with M14 melanoma; 5.56 µM in the assay with NCI-H226 lung. Moreover, the TGI in the assay on OVCAR-3 ovarian turned out to be 7.3 µM; with OVCAR-5 ovarian, 5.59 µM; with SNB-75 CNS it was 14.7 µM; in the assay with TK-10 renal, 22.5 µM.

Consider `CCOc1ccccc1NC(=O)C(=O)CC(=O)c1sc(Nc2nnc(-c3ccc(Cl)c(Cl)c3)o2)nc1C`, for which the TGI with A549 NSCLC, with HCC-2998 colon, with HT29 colon, in the assay with K-562 leukemia, in the assay with M14 melanoma and with NCI-H226 lung was above 100 µM each time. Moreover, the TGI in the assay with OVCAR-3 ovarian, in the assay on OVCAR-5 ovarian, in the assay with SNB-75 CNS and with TK-10 renal was above 100 µM each time.

In the case of `CCOc1ccc(NC(=O)C(=O)CC(=O)c2c(C)n([O-])c3ccccc3[n+]2=O)cc1`, the TGI in the assay on A549 NSCLC, with HCC-2998 colon, in the assay on HT29 colon, with K-562 leukemia, in the assay on M14 melanoma and in the assay with NCI-H226 lung was above 100 µM throughout. Further, the TGI in the assay on OVCAR-3 ovarian, in the assay with OVCAR-5 ovarian, in the assay on SNB-75 CNS and in the assay on TK-10 renal was above 100 µM in each case.

For the molecule `Cc1ncc(C(=O)Nc2ccc(CN3CCN(C)CC3)c(C(F)(F)F)c2)cc1C#Cc1cnc(N)c2ccncc12`, the GI50 was 1.78 µM in the assay on A549 NSCLC; 1.86 µM in the assay on HCC-2998 colon; 0.432 µM in the assay with HT29 colon; 0.783 µM in the assay on M14 melanoma; 0.527 µM in the assay with NCI-H226 lung; 1.67 µM in the assay with OVCAR-3 ovarian. Also, the figures for the GI50 with OVCAR-5 ovarian, in the assay with SNB-75 CNS and in the assay on TK-10 renal were 1.45 µM, 0.854 µM and 1.6 µM, respectively. In addition, the TGI in the assay with A549 NSCLC was found to be 4.24 µM; with HCC-2998 colon, 3.39 µM; with HT29 colon, 2.26 µM; in the assay with K-562 leukemia, 4.48 µM; with M14 melanoma, 2.5 µM; in the assay on NCI-H226 lung, 14.3 µM. For the same molecule, the TGI stood at 5.33 µM in the assay with OVCAR-3 ovarian, 4.53 µM with OVCAR-5 ovarian, 2.21 µM in the assay on SNB-75 CNS and 4.19 µM with TK-10 renal.

Regarding `O=C(Nc1nc(=S)c2c(ncn2CCOC(=O)c2ccccc2)[nH]1)c1ccccc1`, the TGI with A549 NSCLC, in the assay with HCC-2998 colon, in the assay on HT29 colon, with K-562 leukemia, in the assay with M14 melanoma and with NCI-H226 lung was above 100 µM throughout. The TGI in the assay with OVCAR-3 ovarian was above 100 µM; in the assay with OVCAR-5 ovarian, above 100 µM; with SNB-75 CNS it was 47.5 µM; with TK-10 renal, above 100 µM.

For `C=CCCCCOc1ccccc1-c1cnc(OCCCCC=C)n1C`, the GI50 with A549 NSCLC was 3.92 µM; in the assay with HCC-2998 colon it was 6.57 µM; in the assay on HT29 colon, 3.22 µM; in the assay with K-562 leukemia, 3.74 µM; with M14 melanoma it was 2.88 µM; with NCI-H226 lung, 13 µM. In addition, the GI50 with OVCAR-3 ovarian was 3.21 µM; with OVCAR-5 ovarian, 5.22 µM; with SNB-75 CNS, 2.52 µM; with TK-10 renal it was 3.5 µM. The TGI stood at 21.9 µM in the assay on A549 NSCLC; 21.3 µM in the assay on HCC-2998 colon; 10.2 µM in the assay with HT29 colon; 14.1 µM in the assay on K-562 leukemia; 14.6 µM with M14 melanoma; 28.5 µM in the assay on NCI-H226 lung. The TGI amounted to 10.1 µM in the assay on OVCAR-3 ovarian, 23.1 µM with OVCAR-5 ovarian, 11.6 µM with SNB-75 CNS and 23 µM in the assay on TK-10 renal.
